Test results as given in US20250092044A1, “Kinase Inhibitors” (Incyte Corporation, priority 2023, published 2025).

Key:
[1] = target: catalytic domain (JH1) of human JAK2 (Homo sapiens (Human), UniProt O60674); assay: JAK2 LanthaScreen JH1 Binding Assay; conditions: read-out: JH1 Bind IC50
Experimental: JAK2 JH1 binding assay utilizes catalytic domain (JH1, amino acids 826-1132) of human JAK2 expressed as N-terminal FLAG-tagged, biotinylated protein in a baculovirus expression system (Carna Biosciences, Product #08-445-20N). The assay was conducted in black 384-well polystyrene plates in a final reaction volume of 20 μL. JAK2 JH1 (1.5 nM) was incubated with compounds (100 nL serially diluted in DMSO) in the presence of 50 nM fluorescent JAK2-JH1 tracer and 0.5 nM Streptavidin-Tb cryptate (Cisbio Part #610SATLB) in assay buffer (50 mM Tris, pH=7.5, 10 mM MgCl2, 0.01% Brij-35, 0.1% BSA, 1 mM EGTA, 5% Glycerol and 5 mM DTT). Non-specific binding was accessed in the presence of 2 mM ATP. After incubation for 2 hours at 25° C., LanthaScreen signals were read on a PHERAstar FS plate reader (BMG LABTECH). Data was analyzed with IDBS XLfit and GraphPad Prism 5.0 software using a four parameter dose response curve to determine IC50 for each compound.

FLT3 [2] = target: FLT3 (Homo sapiens (Human), UniProt P36888); assay: FLT3 Enzymatic Assay; type: biochemical; conditions: 1 mM ATP
Outline: (§1)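 Room-temperature HTRF kinase assay (665/620 nm ratio) with 0.011 nM FLT3, 1 mM ATP, 500 nM biotinylated TK substrate in HEPES pH 7.0 buffer with MgCl2 and DTT; 0.5% DMSO final. Read after 60 min incubation; IC50 fitted from percent control activity versus log concentration, no-ATP wells as negative control.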

FLT3 [3] = assay: FLT3 Enzymatic Assay; type: biochemical
Outline: as §1

TRKA [4] = target: TRKA (Homo sapiens (Human), UniProt P04629); assay: TRKA Enzymatic Assay; type: biochemical; conditions: 1 mM ATP
Outline: (§2)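 Reaction contained 0.58 nM TRKA, 1 mM ATP, 500 nM biotinylated TK substrate and 62.5 nM SEB reagent in HEPES 50 mM pH 7.0 with 10 mM MgCl2, 1 mM DTT and 0.1 mM orthovanadate, 0.5% DMSO, ATP-initiated. After 60 min at room temperature, the TR-FRET 665/620 nm ratio was read. IC50 was fitted from percent control activity versus log concentration, with DMSO and no-ATP wells as controls.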

TRKA [5] = assay: TRKA Enzymatic Assay; type: biochemical
Outline: as §2

[6] = tested on: pSTAT5 in SET-2 cells in whole blood; assay: pSTAT5 SET-2 Whole Blood MSD Assay; type: cell-based; conditions: Homo sapiens, 2 hour incubation, read-out: SET2 WB IC50
Experimental: SET-2 cells shipped from ABS, RPMI1640 medium, Fetal Bovine Serum from Gibco, Phospho-STAT5a,b Whole Cell Lysate Kit from Mesoscale, Retronectin (Recombinant Human Fibronectin Fragment) from TaKaRa, 96 well cell culture plate flat bottom from Corning, lysis buffer from Cell Signaling Technology, and sterile PBS from Gibco. Whole Blood from by BioIVT.
SET-2 cells were cultured in RPMI media with 20% FBS at 37° C. humidified incubator supplied with 5% CO2. On the day of the assay, 40 uL per well of diluted retronectin working solution was added to sterile 96-well clear flat bottom tissue culture plates (1:200 dilution of retronectin in sterile PBS) and incubated at 37 C for 1 hour. After 1 hour, the retronectin working solution was aspirated and SET-2 cells were seeded at 100,000/well in RPMI+20% FBS. Cells were incubated overnight at 37° C. and 5% CO2. The next day, the medium was removed and 40 μL of diluted compounds in serum-free RPMI and whole blood was added to the cells for a 2 hour incubation at 37° C. and 5% CO2. The compound starting concentration is 20 μM and 2.5 fold serial diluted down to 0.21 nM. The whole blood and compound mixture was then aspirated off using the BlueCat plate washer and washed 1× with PBS. Cells were lysed by adding 40 μL of 3× complete lysis buffer and shaken at room temperature for 45-60 minutes (complete lysis buffer consists of Cell Signaling Technology lysis buffer diluted to 3× and supplemented with Mesoscale's protease inhibitor, phosphatase I inhibitor, and phosphatase II inhibitor). The pSTAT5 MSD plates were blocked by adding 150 μL of Blocker A solution per well to the MSD plates and incubated at room temperature with shaking at 400 rpm for one hour or longer. After blocking, plates were washed 3× with 300 μL/well of 1× Tris Wash Buffer. After lysis, added 25 μL per well of lysed sample was added to MSD plate and incubated with shaking at 4° C. wrapped in foil overnight. The next day, plates were washed again and 25 μL/well of diluted 1× Detection Antibody Solution, wrapped in foil, and incubated at room temperature with shaking at 400 rpm for 1 hour. Plates were then washed again and lastly, 150 μL/well of 1× Read Buffer T was added to all wells. Plates were analyzed on MSD Discovery within 5 minutes. […] Data analysis was performed in GraphPad Prism using a 4-parameter fit and data was reported as Average±SD.

TRKA (Homo sapiens (Human), UniProt P04629), sequence (P04629 33-796, species assumed): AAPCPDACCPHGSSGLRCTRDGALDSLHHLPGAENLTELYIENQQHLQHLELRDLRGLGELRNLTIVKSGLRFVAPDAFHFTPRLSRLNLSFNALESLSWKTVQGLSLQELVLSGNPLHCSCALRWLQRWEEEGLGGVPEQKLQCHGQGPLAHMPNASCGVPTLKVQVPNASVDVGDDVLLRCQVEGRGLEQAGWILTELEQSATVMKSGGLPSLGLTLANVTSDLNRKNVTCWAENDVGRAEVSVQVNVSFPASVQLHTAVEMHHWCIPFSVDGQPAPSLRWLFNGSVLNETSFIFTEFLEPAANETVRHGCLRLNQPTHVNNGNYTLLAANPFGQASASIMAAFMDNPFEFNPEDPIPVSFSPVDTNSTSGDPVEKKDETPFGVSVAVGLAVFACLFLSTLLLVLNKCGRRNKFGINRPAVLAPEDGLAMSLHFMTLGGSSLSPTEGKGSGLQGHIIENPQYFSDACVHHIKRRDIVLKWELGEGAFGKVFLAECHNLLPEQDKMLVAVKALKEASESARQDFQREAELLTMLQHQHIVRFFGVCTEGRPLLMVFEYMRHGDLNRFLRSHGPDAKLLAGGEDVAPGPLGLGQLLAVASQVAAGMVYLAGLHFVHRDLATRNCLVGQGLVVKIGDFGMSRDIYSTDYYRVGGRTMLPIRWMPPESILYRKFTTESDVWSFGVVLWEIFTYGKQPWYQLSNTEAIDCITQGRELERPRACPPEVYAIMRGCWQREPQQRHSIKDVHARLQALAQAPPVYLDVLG
catalytic domain (JH1) of human JAK2, sequence (O60674 826-1132): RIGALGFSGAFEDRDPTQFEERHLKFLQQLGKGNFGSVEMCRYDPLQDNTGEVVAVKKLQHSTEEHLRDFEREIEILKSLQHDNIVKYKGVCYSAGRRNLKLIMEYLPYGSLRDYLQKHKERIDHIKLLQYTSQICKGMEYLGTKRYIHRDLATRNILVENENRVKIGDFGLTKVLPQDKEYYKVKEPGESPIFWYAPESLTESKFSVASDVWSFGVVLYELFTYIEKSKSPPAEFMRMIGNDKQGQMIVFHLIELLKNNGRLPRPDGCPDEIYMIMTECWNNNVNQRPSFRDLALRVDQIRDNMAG
FLT3 (Homo sapiens (Human), UniProt P36888), sequence (P36888 27-993, species assumed): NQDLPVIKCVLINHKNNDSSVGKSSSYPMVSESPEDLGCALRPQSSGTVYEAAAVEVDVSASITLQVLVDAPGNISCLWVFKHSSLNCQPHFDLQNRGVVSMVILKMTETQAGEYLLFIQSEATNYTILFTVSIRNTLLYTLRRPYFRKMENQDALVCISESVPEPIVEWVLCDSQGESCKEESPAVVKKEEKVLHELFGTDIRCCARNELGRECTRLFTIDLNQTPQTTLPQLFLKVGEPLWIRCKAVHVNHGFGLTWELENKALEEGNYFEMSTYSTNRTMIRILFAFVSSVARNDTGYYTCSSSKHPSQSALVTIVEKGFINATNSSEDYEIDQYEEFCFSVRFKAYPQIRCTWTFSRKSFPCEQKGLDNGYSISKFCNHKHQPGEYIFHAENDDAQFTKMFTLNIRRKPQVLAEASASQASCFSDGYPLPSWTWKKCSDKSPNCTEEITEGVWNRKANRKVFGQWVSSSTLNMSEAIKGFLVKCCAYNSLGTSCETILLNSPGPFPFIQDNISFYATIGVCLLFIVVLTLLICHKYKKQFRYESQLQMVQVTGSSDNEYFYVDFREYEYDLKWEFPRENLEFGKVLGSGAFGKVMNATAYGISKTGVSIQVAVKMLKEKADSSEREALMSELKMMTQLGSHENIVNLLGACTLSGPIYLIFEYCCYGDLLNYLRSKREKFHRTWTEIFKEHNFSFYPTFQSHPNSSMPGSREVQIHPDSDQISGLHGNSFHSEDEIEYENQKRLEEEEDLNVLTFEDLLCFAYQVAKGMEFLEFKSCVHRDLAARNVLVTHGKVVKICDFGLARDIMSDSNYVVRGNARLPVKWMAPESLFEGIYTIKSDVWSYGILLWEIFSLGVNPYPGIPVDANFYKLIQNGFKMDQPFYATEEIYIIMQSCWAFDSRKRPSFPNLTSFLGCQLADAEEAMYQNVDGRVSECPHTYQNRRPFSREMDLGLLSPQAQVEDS

Compound | IC50 [1] [nM] | IC50 (FLT3 [2]) [nM] | Selectivity FLT3/JH2 V617F (FLT3 [3]) | IC50 (TRKA [4]) [nM] | Selectivity TRKA/JH2 V617F (TRKA [5]) | IC50 [6] [nM]
COC(=O)N[C@@H]1CC[C@@H](n2c(=O)n(C)c3cnc4[nH]c(-c5ccc(C(=O)NC6(C(F)(F)F)CC6)c(F)c5)c(-c5ccc6c(cnn6C(C)C)c5)c4c32)C1 [Example 13, Methyl ((1R,3R)-3-(7-(3-fluoro-4-((1-(trifluoromethyl)cyclopropyl)carbamoyl)phenyl)-8-(1-isopropyl-1H-indazol-5-yl)-3-methyl-2-oxo-3,6-dihydroimidazo[4,5-d]pyrrolo[2,3-b]pyridin-1(2H)-yl)cyclopentyl)carbamate] | > 1000 | > 2500 | ****** (selectivity of >12500-fold) | > 2500 | ***** (selectivity of >5000-fold to ≤12500-fold) | 5000 to 7500
COCCN(C)C(=O)c1ccc(-c2[nH]c3ncc4c(c3c2-c2ccc3c(cnn3C(C)C)c2)n([C@@H]2CC[C@@H](NC(=O)OC)C2)c(=O)n4C)cc1F [Example 15, Methyl ((1R,3R)-3-(7-(3-fluoro-4-((2-methoxyethyl)(methyl)carbamoyl)phenyl)-8-(1-isopropyl-1H-indazol-5-yl)-3-methyl-2-oxo-3,6-dihydroimidazo[4,5-d]pyrrolo[2,3-b]pyridin-1(2H)-yl)cyclopentyl)carbamate] | > 1000 | 1250 to 2500 | ****** (selectivity of >12500-fold) | > 2500 | ****** (selectivity of >12500-fold) | 5000 to 7500
COC(=O)N[C@@H]1CC[C@@H](n2c(=O)n(C)c3cnc4[nH]c(-c5ccc(C(=O)NC6CC6)c(F)c5)c(-c5ccc6c(cnn6C(C)C)c5)c4c32)C1 [Example 8, Methyl ((1R,3R)-3-(7-(4-(cyclopropylcarbamoyl)-3-fluorophenyl)-8-(1-isopropyl-1H-indazol-5-yl)-3-methyl-2-oxo-3,6-dihydroimidazo[4,5-d]pyrrolo[2,3-b]pyridin-1(2H)-yl)cyclopentyl)carbamate] | > 1000 | > 2500 | ****** (selectivity of >12500-fold) | > 2500 | ****** (selectivity of >12500-fold) | 5000 to 7500
CNC(=O)c1ccc(-c2[nH]c3ncc4c(c3c2-c2ccc3c(cnn3C(C)C)c2)n([C@@H]2CC[C@@H](NC(=O)OC)C2)c(=O)n4C)cc1F [Example 12, Methyl ((1R,3R)-3-(7-(3-fluoro-4-(methylcarbamoyl)phenyl)-8-(1-isopropyl-1H-indazol-5-yl)-3-methyl-2-oxo-3,6-dihydroimidazo[4,5-d]pyrrolo[2,3-b]pyridin-1(2H)-yl)cyclopentyl)carbamate] | > 1000 | > 2500 | ****** (selectivity of >12500-fold) | > 2500 | ****** (selectivity of >12500-fold) | > 7500
[2H]C([2H])([2H])N(Cc1ccc(-c2[nH]c3ncc4c(c3c2-c2ccc(OCCOC)cc2)n([C@@H]2CC[C@@H](NC(=O)OC)C2)c(=O)n4C([2H])([2H])[2H])cc1)C([2H])([2H])[2H] [Example 27, Methyl ((1R,3R)-3-(7-(4-((bis(methyl-d3)amino)methyl)phenyl)-8-(4-(2-methoxyethoxy)phenyl)-3-(methyl-d3)-2-oxo-3,6-dihydroimidazo[4,5-d]pyrrolo[2,3-b]pyridin-1(2H)-yl)cyclopentyl)carbamate] | > 1000 | 250 to 1250 | *** (selectivity of >1500-fold to ≤1750-fold) | 1250 to 2500 | ***** (selectivity of >5000-fold to ≤12500-fold) | ≤ 2500
COC(=O)N[C@@H]1CC[C@@H](n2c(=O)n(C)c3cnc4[nH]c(-c5ccc(C(=O)NC6CC6(F)F)c(F)c5)c(-c5ccc6c(cnn6C(C)C)c5)c4c32)C1 (stereo partly drawn) [Example 9, Methyl ((1R,3R)-3-(7-(4-((2,2-difluorocyclopropyl)carbamoyl)-3-fluorophenyl)-8-(1-isopropyl-1H-indazol-5-yl)-3-methyl-2-oxo-3,6-dihydroimidazo[4,5-d]pyrrolo[2,3-b]pyridin-1(2H)-yl)cyclopentyl)carbamate] | > 1000 | > 2500 | ****** (selectivity of >12500-fold) | > 2500 | ****** (selectivity of >12500-fold) | 5000 to 7500
COC(=O)N[C@@H]1CC[C@@H](n2c(=O)n(C)c3cnc4[nH]c(-c5ccc(C(=O)NC6CC6C(F)(F)F)c(F)c5)c(-c5ccc6c(cnn6C(C)C)c5)c4c32)C1 (stereo partly drawn) [Example 10, Methyl ((1R,3R)-3-(7-(3-fluoro-4-((2-(trifluoromethyl)cyclopropyl)carbamoyl)phenyl)-8-(1-isopropyl-1H-indazol-5-yl)-3-methyl-2-oxo-3,6-dihydroimidazo[4,5-d]pyrrolo[2,3-b]pyridin-1(2H)-yl)cyclopentyl)carbamate] | > 1000 | > 2500 | ****** (selectivity of >12500-fold) | > 2500 | ****** (selectivity of >12500-fold) | > 7500
CNC(=O)c1ccc(-c2[nH]c3ncc4c(c3c2-c2ccc3c(cnn3C(C)C)c2)n([C@@H]2CC[C@@H](NC(=O)OC)C2)c(=O)n4C)cc1 [Example 21, Methyl ((1R,3R)-3-(8-(1-isopropyl-1H-indazol-5-yl)-3-methyl-7-(4-(methylcarbamoyl)phenyl)-2-oxo-3,6-dihydroimidazo[4,5-d]pyrrolo[2,3-b]pyridin-1(2H)-yl)cyclopentyl)carbamate] | > 1000 | 250 to 1250 | ***** (selectivity of >5000-fold to ≤12500-fold) | 1250 to 2500 | ****** (selectivity of >12500-fold) | > 7500
COc1nn(C)cc1-c1[nH]c2ncc3c(c2c1-c1ccc2c(cnn2C)c1)n([C@H]1CC[C@@H](CC#N)CC1)c(=O)n3C [E, reference compound] | > 1000 |  | * (selectivity of ≤500-fold) |  | ** (selectivity of >500-fold to ≤1500-fold) | > 7500
[2H]C([2H])([2H])n1ncc2cc(-c3c(-c4cn(C)nc4OC)[nH]c4ncc5c(c34)n(C3CCOCC3)c(=O)n5C)ccc21 [Comparative Example B, reference compound] | > 1000 |  | * (selectivity of ≤500-fold) | > 2500 | ** (selectivity of >500-fold to ≤1500-fold) | 5000 to 7500
COc1nn(C)cc1-c1[nH]c2ncc3c(c2c1-c1ccc2c(cnn2C)c1)n(C1CCOCC1)c(=O)n3C [Comparative Example A, reference compound] | > 1000 |  | * (selectivity of ≤500-fold) |  | ** (selectivity of >500-fold to ≤1500-fold) | 5000 to 7500
